Test [1] has as its system T-Rex 293 cell line SC3 cells having increased expression of androgen receptor protein due to exposure to doxycycline. Nature of the test: Cellular growth inhibition assay, T-Rex 293 SC3 cells with doxycycline (CellTiter-Glo, 72 hours). The following applies: 72 h, T-Rex 293 SC3 cells with increased androgen receptor expression due to doxycycline (10 ng/mL). The test is classed as cell-based. In a few lines: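 Growth inhibition is measured in an inducible AR-expressing T-Rex 293 clone, SC3, cultured with or without 10 ng/mL doxycycline in hormone-depleted medium. Test compounds are applied for 72 hours. GI50 values derive from CellTiter-Glo 2.0 signal fitted by four-parameter regression.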
For orientation: In ATP-based viability assays light output follows the ATP content of the culture.

The next test has as its target T1, androgen receptor (Homo sapiens, UniProt P10275).
T1 sequence (P10275 1-920 T878A): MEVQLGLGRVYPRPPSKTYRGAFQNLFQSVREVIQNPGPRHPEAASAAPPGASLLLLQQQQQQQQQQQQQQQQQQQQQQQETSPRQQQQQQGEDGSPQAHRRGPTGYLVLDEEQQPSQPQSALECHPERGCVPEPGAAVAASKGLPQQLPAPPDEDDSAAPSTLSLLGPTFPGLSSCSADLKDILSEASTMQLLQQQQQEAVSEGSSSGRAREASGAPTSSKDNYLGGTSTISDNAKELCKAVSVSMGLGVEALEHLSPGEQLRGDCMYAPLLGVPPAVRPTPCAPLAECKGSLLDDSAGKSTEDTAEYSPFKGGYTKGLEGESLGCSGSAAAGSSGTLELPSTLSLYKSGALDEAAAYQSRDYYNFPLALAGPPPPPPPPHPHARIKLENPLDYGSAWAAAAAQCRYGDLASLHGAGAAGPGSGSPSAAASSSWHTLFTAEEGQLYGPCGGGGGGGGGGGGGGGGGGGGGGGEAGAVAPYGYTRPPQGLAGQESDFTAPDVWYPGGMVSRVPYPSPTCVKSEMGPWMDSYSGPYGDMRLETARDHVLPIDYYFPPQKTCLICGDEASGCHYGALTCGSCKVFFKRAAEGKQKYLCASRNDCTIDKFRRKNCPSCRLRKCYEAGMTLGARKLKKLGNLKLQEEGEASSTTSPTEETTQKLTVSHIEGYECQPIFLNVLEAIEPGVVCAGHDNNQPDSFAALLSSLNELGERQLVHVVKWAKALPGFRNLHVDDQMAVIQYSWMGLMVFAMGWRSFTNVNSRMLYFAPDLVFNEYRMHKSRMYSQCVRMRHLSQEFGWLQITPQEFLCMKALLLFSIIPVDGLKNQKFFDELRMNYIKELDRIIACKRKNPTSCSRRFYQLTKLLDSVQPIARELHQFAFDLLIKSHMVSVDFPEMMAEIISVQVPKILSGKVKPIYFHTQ
Briefly: Assay for binding affinity to androgen receptor ([3H]methyltrienolone radioligand, cell cytosol). The following applies: binding to the androgen receptor, Table 3. The method, then: Fractions of cell cytosol ([…]) were incubated for 24 hr at 4° C. with 1 nM [^3H]methyltrienolone in the absence or presence of the test compound in a buffer containing 25 mM Hepes-Tris (pH 7.4), 1 mM EDTA, 10 mM Na2MoO4, 2 mM DTT, 5 μM triamcinolone acetonide, and 10% glycerol. Nonspecific binding was determined in the presence of […] testosterone. Following incubation, the samples were filtered rapidly under vacuum through glass fiber filters (GF/B, Packard) presoaked with 0.3% PEI and rinsed several times with ice-cold 50 mM Tris-HCl using a 96-sample cell harvester (Unifilter, Packard). The filters were dried then counted for radioactivity in a scintillation counter (Topcount, Packard) using a scintillation cocktail (Microscint 0, Packard). The results are expressed as a percent inhibition of the control radioligand specific binding. The standard reference compound is testosterone, which is tested in each experiment at several concentrations to obtain a competition curve from which its IC50 is calculated.

The structures appear in SMILES notation. Some results are limits rather than exact numbers.

A word on the GI50: it is the concentration that inhibits growth by half. One may read the Kd as the constant that tells how readily two partners part at equilibrium. A low value points to tighter binding.

The molecule `Cc1sc2c(c1C)C(c1ccc(Cl)cc1)=N[C@@H](CC(=O)NCCOC1CCN(c3ccc(C(=O)N[C@H]4CC[C@H](Oc5ccc(C#N)c(Cl)c5)CC4)nn3)CC1)c1nnc(C)n1-2` [I-1, N-[4-(3-chloro-4-cyano-phenoxy)cyclohexyl]-6-[4-[2-[[2-[(9S)-7-(4-chlorophenyl)-4,5,13-trimethyl-3-thia-1,8,11,12-tetrazatricyclo[8.3.0.0^2,6]trideca-2(6),4,7,10,12-pentaen-9-yl]acetyl]amino]ethoxy]-1-piperidyl]pyridazine-3-carboxamide] showed a GI50 in test [1] of 0.5 to 1.5 µM. At androgen receptor, the Kd is less than 0.05 µM.
In turn, `Cc1sc2c(c1C)C(c1ccc(Cl)cc1)=N[C@@H](CC(=O)NCCOCCOCCOC1CCN(c3ccc(C(=O)N[C@H]4CC[C@H](Oc5ccc(C#N)c(Cl)c5)CC4)nn3)CC1)c1nnc(C)n1-2` [I-2, N-[4-(3-chloro-4-cyano-phenoxy)cyclohexyl]-6-[4-[2-[2-[2-[[2-[(9S)-7-(4-chlorophenyl)-4,5,13-trimethyl-3-thia-1,8,11,12-tetrazatricyclo[8.3.0.0^2,6]trideca-2(6),4,7,10,12-pentaen-9-yl]acetyl]amino]ethoxy]ethoxy]ethoxy]-1-piperidyl]pyridazine-3-carboxamide] gave a GI50 in test [1] of less than 0.5 µM. This molecule also yielded a Kd at androgen receptor of less than 0.05 µM.
The matching figures for `CCNC(=O)C[C@@H]1N=C(c2ccc(OCCOC3CCN(c4ccc(C(=O)N[C@H]5CC[C@H](Oc6ccc(C#N)c(Cl)c6)CC5)nn4)CC3)cc2)c2c(sc(C)c2C)-n2c(C)nnc21` [I-8]: less than 0.5 µM and less than 0.05 µM.
The matching figures for `CCNC(=O)C[C@@H]1N=C(c2ccc(OCCOCCOC3CCN(c4ccc(C(=O)N[C@H]5CC[C@H](Oc6ccc(C#N)c(Cl)c6)CC5)nn4)CC3)cc2)c2c(sc(C)c2C)-n2c(C)nnc21` [I-10]: less than 0.5 µM and less than 0.05 µM.
As for `CCNC(=O)C[C@@H]1N=C(c2ccc(CCCOC3CCN(c4ccc(C(=O)N[C@H]5CC[C@H](Oc6ccc(C#N)c(Cl)c6)CC5)nn4)CC3)cc2)c2c(sc(C)c2C)-n2c(C)nnc21` [I-17], the GI50 in test [1] is less than 0.5 µM.
In the case of `CCNC(=O)C[C@@H]1N=C(c2ccc(CC3CCN(c4ccc(C(=O)N[C@H]5CC[C@H](Oc6ccc(C#N)c(Cl)c6)CC5)nn4)CC3)cc2)c2c(sc(C)c2C)-n2c(C)nnc21` [I-20], the GI50 in test [1] was less than 0.5 µM. On androgen receptor, this molecule yielded a Kd of less than 0.05 µM.
On the same counts, the results for `CCNC(=O)C[C@@H]1N=C(c2ccc(N3CC4(C3)CN(c3ccc(C(=O)N[C@H]5CC[C@H](Oc6ccc(C#N)c(Cl)c6)CC5)nn3)C4)cc2)c2c(sc(C)c2C)-n2c(C)nnc21` [I-24] are 0.5 to 1.5 µM and less than 0.05 µM.
The matching figures for `CCNC(=O)C[C@@H]1N=C(c2ccc(OCC3CN(c4ccc(C(=O)N[C@H]5CC[C@H](Oc6ccc(C#N)c(Cl)c6)CC5)nn4)C3)cc2)c2c(sc(C)c2C)-n2c(C)nnc21` [I-29]: less than 0.5 µM and less than 0.05 µM.
On the same counts, the results for `CCNC(=O)C[C@@H]1N=C(c2ccc(N3CCC(OC4CCN(c5ccc(C(=O)N[C@H]6CC[C@H](Oc7ccc(C#N)c(Cl)c7)CC6)nn5)CC4)CC3)cc2)c2c(sc(C)c2C)-n2c(C)nnc21` [I-44] are less than 0.5 µM and less than 0.05 µM.
As for `CCNC(=O)C[C@@H]1N=C(c2ccc(OCCCN(C)c3ccc(C(=O)N[C@H]4CC[C@H](Oc5ccc(C#N)c(Cl)c5)CC4)nn3)cc2)c2c(sc(C)c2C)-n2c(C)nnc21` [I-48], the GI50 in test [1] was less than 0.5 µM. Further, the equilibrium dissociation constant (Kd) on androgen receptor is less than 0.05 µM.

The values are drawn from patent publication US20260109707A1, “HETEROBIFUNCTIONAL COMPOUNDS AND METHODS OF TREATING DISEASE” (Halda Therapeutics OpCo. Inc., priority 2022, published 2026).
